The numbers were not newly measured in patent publication US20230036624A1, “RETINOL-BASED COMPOSITION” (L'OREAL, priority 2019, published 2023), which cites them from elsewhere.

This data set deals with human epidermal keratinocytes grown in monolayer culture.

As to `CCCCCCCCCCCCCCCC(=O)OC/C=C(C)/C=C/C=C(C)/C=C/C1=C(C)CCCC1(C)C` [retinyl palmitate], the “effectiveness compared with retinol, measured at the transcriptomic level” value is “less effective than retinol”.
